Measured values reported in ChEMBL document CHEMBL1201862, “PubChem BioAssay data set” (2004).
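Results reflect a 48-hour exposure of cells in 96-well plates to compound at five concentrations. The concentration for 50% growth inhibition is given as GI50.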 Calls of active or inactive are those of the source. Rule as the data show it: active = GI50 up to about 1.1 µM and inactive = higher.

Experiments:
Test in all cases: NCI-60 cell line screen, 48 h
[1] = tested on: LXFL 529
[2] = tested on: BT-549
[3] = tested on: DMS-114
[4] = tested on: HOP-18
[5] = tested on: DMS-273
[6] = tested on: RXF 631
[7] = tested on: XF498

Q: Which results are given for CCCCCCCCCCCCCCCC(=O)OCC1OC(OC)C2NP(=O)(N(CCCl)CCCl)OC1C2O (configuration not stated)?
A: GI50 [1]: 2.43 µM (inactive); GI50 [2]: 2.3 µM (inactive); GI50 [3]: 1.54 µM (inactive); GI50 [4]: 8.53 µM (inactive); GI50 [5]: 0.152 µM (active); GI50 [6]: 6.89 µM (inactive); GI50 [7]: 2.31 µM (inactive)
